US20070270591A1, “Iron (II) amino acid chelates with reducing agents attached thereto” (priority 2006, published 2007)

Conditions: no method given; for absorption compared with ferrous sulfate: comparison with ferrous sulfate

Question: Which “absorption relative to ferric trisglycinate (absorbed x times better)” value (comparison with ferric trisglycinate) does the source give for `NCC(=O)[O-].NCC(=O)[O-].[Fe+2]` [Ferrous bisglycinate] here?
Answer: 2.3 times

Question: And the “absorption compared with ferrous sulfate” value?
Answer: better than ferrous sulfate

Question: Which “absorption compared with ferrous sulfate” value does the source give for `NCC(=O)O.NCC(=O)O.NCC(=O)O.[Fe]` [ferric trisglycinate] here?
Answer: better than ferrous sulfate
